The results in this text go back to patent US20250206754A1, “PAN-CHEMOKINE ANTAGONISTS FOR USE IN TREATING CANCER AND IMMUNE DISORDERS” ("Micar Innovation" LTD., priority 2022, published 2025).

One series has as its target T1, CCR3 (Homo sapiens, UniProt P51677).
T1 sequence (P51677 1-355): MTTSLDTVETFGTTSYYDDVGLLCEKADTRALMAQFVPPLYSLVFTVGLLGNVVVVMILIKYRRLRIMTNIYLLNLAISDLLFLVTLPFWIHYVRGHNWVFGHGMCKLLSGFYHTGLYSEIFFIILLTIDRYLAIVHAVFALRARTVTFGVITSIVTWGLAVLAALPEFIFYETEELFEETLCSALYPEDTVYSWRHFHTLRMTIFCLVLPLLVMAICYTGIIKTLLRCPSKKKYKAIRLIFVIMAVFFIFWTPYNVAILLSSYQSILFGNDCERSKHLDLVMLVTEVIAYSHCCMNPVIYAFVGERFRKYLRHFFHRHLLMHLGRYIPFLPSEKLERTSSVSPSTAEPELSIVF
In words: β-arrestin selectivity assay, CCR3. The series is classed as cell-based.

In series [1] the test system is primary human keratinocytes. Briefly: Cell viability in the keratinocyte inflammation models. The series is classed as cell-based. The settings on record: in the cytokine release models.
The test system of a further series is MB231cell line. In words: Migration assay by MB231 cell line with CCL19/CCL21. The settings on record: 100 nM of CCL19/CCL21.
The next series has as its target T2, CCR9 (Homo sapiens, UniProt P51686).
T2 sequence (P51686 1-369): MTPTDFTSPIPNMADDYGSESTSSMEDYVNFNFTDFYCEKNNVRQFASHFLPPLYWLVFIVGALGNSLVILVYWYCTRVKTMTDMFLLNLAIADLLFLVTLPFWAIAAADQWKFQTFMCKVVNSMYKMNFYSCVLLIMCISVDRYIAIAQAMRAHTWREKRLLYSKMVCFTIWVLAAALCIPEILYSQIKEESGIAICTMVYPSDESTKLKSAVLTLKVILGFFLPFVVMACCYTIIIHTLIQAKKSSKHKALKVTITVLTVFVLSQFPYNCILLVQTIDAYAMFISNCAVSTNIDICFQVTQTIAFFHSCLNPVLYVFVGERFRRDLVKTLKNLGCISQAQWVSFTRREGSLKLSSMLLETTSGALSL
In words: Ca^2+ mobilization assay, CCR9. The series is classed as cell-based. How it is done: (§1) The Kb values are also retrieved. […] Finally, to make it more clear the second messenger output for Hit1 and confirm the nature of β-arrestin bias GTPγS and ERK assays were also performed. […] Considering that the ERK is directly related to β-arrestin path and binds directly to the arrestin it was concluded that this compound is β-arrestin biased (Table 1 and FIGS. 3A and 3B). Finally, several other potential hits were identified but the activities were in a range of 25-35% at 100 μM concentration and they were discarded in this disclosure.

For another series, the system named is IL17 release. Briefly: Inhibition of IL17 release (inflammation model). To be noted: Homo sapiens, read-out: EC50, IL17 release.
Series [2] addresses T3, CCR5 (Homo sapiens, UniProt P51681). In words: Ca^2+ mobilization assay, CCR5. Format: cell-based. How it is done: as §1
Another series concerns the target T4, CCR1 (Homo sapiens, UniProt P32246).
T4 sequence (P32246 1-355): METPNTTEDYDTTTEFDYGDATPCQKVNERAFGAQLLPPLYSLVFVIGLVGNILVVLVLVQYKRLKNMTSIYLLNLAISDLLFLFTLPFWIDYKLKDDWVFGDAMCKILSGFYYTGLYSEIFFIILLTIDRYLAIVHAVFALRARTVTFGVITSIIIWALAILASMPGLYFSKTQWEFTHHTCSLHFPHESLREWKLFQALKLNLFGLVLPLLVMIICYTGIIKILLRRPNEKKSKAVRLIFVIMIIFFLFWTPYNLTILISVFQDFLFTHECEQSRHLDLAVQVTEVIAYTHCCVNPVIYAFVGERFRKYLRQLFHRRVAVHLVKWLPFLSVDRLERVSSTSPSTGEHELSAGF
In words: β-arrestin selectivity assay, CCR1. The series is classed as cell-based.

Another series deals with T5, CCR7 (Homo sapiens, UniProt P32248).
T5 construct: expressed in transfected cells
T5 sequence (P32248 25-378): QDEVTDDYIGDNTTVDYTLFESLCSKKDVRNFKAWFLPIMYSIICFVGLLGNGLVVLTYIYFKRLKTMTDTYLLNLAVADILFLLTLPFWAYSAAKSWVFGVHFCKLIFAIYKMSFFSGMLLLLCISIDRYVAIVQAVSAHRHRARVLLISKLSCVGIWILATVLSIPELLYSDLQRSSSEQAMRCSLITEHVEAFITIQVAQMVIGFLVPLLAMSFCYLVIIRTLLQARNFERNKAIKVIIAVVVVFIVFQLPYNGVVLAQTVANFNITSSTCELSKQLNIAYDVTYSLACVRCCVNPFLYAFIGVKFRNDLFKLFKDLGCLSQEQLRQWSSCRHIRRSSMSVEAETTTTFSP
In words: GTPγS assay, CCR7. The series is classed as biochemical. How it is done: as §1
Current diversity data provide also several additional experimental evidences which are against colloid aggregation activity dependence: • Almost identical steep dose-response curves have been observed for the natural CCL19 and CCL21 agonists. Thus, it seems that this is not unique to Hit 1 case. • Hill coefficient of 1.5 in the ERK experiments and no steep slope (FIG. 3A). Moreover, the ERK dose-response curve looks like a typical single antagonist ligand. • At the same conditions as in the ERK assay the compound was in particular not active in the GTPγS assay up to 100 μM (FIG. 3B). […]

For series [3], the target named is T3, CCR5. In words: cAMP assay, CCR5. The series is classed as cell-based. To be noted: CCR5 (data not shown). How it is done: as §1

T3 sequence (P51681 whole entry): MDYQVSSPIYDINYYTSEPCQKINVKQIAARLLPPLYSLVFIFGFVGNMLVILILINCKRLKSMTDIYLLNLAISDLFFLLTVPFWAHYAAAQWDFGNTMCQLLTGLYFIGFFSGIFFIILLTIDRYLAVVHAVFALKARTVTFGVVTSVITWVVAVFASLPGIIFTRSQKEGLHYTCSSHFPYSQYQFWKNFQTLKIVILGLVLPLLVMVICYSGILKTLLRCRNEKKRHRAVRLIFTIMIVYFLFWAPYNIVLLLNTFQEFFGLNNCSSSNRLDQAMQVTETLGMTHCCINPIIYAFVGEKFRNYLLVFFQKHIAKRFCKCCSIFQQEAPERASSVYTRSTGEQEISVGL
Procedure for MB231cell line: For this purpose a model for the inhibition of CCL2 release from IL-4, IL-13, IL-22 and IFNγ-stimulated primary human keratinocytes (Eczematous inflammation) was used and also an assay for the inhibition of IL-8 release from IL-17A and TNFα (Psoriatic inflammation). […] Finally, migration assay by MB231cell line was performed.

As for `NC(=O)c1ccccc1Oc1ncnc2sc(-c3ccccc3)cc12` [Hit 1, 2-({6-phenylthieno[2,3-d]pyrimidin-4-yl}oxy)benzamide], the Hill coefficient – broadly, the slope factor of the fitted curve – is recorded as 2.6 at CCR3 and 2.3 at CCR1. In addition, the IC50 – broadly, the concentration that inhibits the measured activity by half – against CCR3 turned out to be 4.4 µM; at CCR9 (Ca^2+ mobilization assay), 58 µM; against CCR5 [2] (Ca^2+ mobilization assay), 55 µM; against CCR1, 13.6 µM; against CCR5 [3], 50 µM. Further, the cell viability result in series [1] is recorded as “Some inhibition of the cell viability”. In the series on MB231cell line, the “reduction of CCL19/CCL21-induced migration” value came out at 10 folds. In addition, the migratory cells in the series on MB231cell line (control 100%, CCL19/CCL21 200%) came to 20%. In addition, the Kb worked out at 5.2 µM on CCR9 and 10.5 µM at CCR5 [2]. For the same compound, the figures for the Hill-Slope on CCR9 (Ca^2+ assay) and on CCR5 [2] (Ca^2+ assay) were 0.8 and 1.2, respectively. For the same compound, the 50% effective concentration (EC50) (commonly the concentration that produces a half-maximal response) in the series with IL17 release is 3.78 µM. At CCR7 (GTPγS assay, highest concentration of 100 μM), this compound showed an antagonist activity of 16%. Besides, at CCR7 (up to 100 μM), the “activity in GTPγS assay” value is “not active”.
